These results are taken from PubChem BioAssay (NCI).

Holding throughout (assay): NCI tumour cell line growth inhibition, 48 h
For test [1], the system named is ACHN renal.
Test [2] relates to COLO 205 colon.
In test [3] the test system is HL-60(TB) leukemia.
The subject of test [4] is HOP-62 NSCLC.
Test [5] deals with NCI-H23 lung.
For test [6], the system named is OVCAR-3 ovarian.
For test [7], the system named is SK-MEL-28 melanoma.
Test [8] concerns SN12C renal.
Test [9] deals with T-47D breast.
Test [10] has as its system HOP-92 NSCLC.

Structures are written as SMILES.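 A five-concentration, 48-hour dose response in 96-well plates underlies each endpoint, interpolated linearly between surrounding concentrations. TGI denotes the concentration required for complete inhibition of growth.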

As for `N#CC1=C(N)N(c2ccccc2)C(c2ccccc2)C1(C#N)C#N` (stereo not drawn), the TGI in test [1] amounted to 40.7 µM; in [2], 36.1 µM; in test [3], 43.9 µM; in test [4], 36.8 µM; in [5], 44.8 µM; in [6] it was 34.6 µM. Also, the TGI in test [7] was 31.1 µM; in test [8], 36.6 µM; in test [9], 24.4 µM.
As for `CC(C)CC(O)P(=O)(O)O` (stereo not drawn), the TGI in test [1], in test [2], in test [3], in [4], in test [6] and in [7] was more than 100 µM in each case. The TGI in test [8] and in [9] was more than 100 µM in each case.
Turning to `Cc1cc(NCc2ccccc2)c2ccccc2[n+]1CCCCCCCCCC[n+]1c(C)cc(NCc2ccccc2)c2ccccc21`, the TGI in test [1] came to 2.92 µM; in [2] it was 0.665 µM; in [3], 1.19 µM; in [10] it was 2.25 µM; in test [5], 1.86 µM; in [7] it was 2.16 µM. Besides, the TGI is 1.08 µM in test [8] and 1.41 µM in [9].
Turning to `CC(C)(C)C(=O)CC1=Nc2ccccc2SC1(O)CC(=O)C(C)(C)C` (stereo not drawn), the TGI was 70.2 µM in test [1]; 29.8 µM in [2]; 80.2 µM in test [3]; 76.2 µM in test [4]; 98.7 µM in test [5]; 75.3 µM in test [6]. The TGI in test [7] was found to be 66 µM; in [8], 73.2 µM; in [9] it was 67.8 µM.
For `CC(C(O)Cc1ccccc1)N(C)N=Nc1ccc([N+](=O)[O-])cc1` (stereo not drawn), the TGI in test [1] is 77 µM; in [2] it was 39.2 µM; in [3] it was more than 100 µM; in test [4], 37.5 µM; in test [5] it was 48.1 µM; in test [6], 36.3 µM. Further, the TGI stood at 39.9 µM in test [7], 44.9 µM in test [8] and 74.5 µM in test [9].
For the molecule `S=C(Nc1ccc2c(c1)oc1ccccc12)c1cccnc1`, the TGI is more than 100 µM in test [1]; more than 100 µM in test [2]; 32.9 µM in test [4]; more than 100 µM in test [10]; more than 100 µM in [5]; 67.3 µM in test [6]. Further, the TGI in test [7], in test [8] and in test [9] was more than 100 µM in each case.
Regarding `CN1[C@@H]2C[C@@H](OC(=O)[C@H](CO)c3ccccc3)C[C@H]1[C@@H]1O[C@@H]12`, the TGI in test [1], in test [2], in test [4], in test [10], in test [5] and in test [6] was more than 100 µM in each case. For the same molecule, the TGI in test [7], in test [8] and in test [9] was more than 100 µM throughout.
On to `Nc1ccc(S(=O)(=O)Nc2nccs2)cc1`, for which the TGI in test [1], in test [2], in test [3], in test [4], in [5] and in test [6] was more than 100 µM throughout. Besides, the TGI in test [7], in test [8] and in test [9] was more than 100 µM each time.
Take `O=C(O)/C=c1/c2ccccc2n2nc3ccccc3c12`: the TGI in [1] was 66.1 µM; in [2], 33.5 µM; in test [3] it was 67.1 µM; in [4], more than 100 µM; in test [5], more than 100 µM; in test [6] it was more than 100 µM. For the same molecule, the TGI in test [7] was more than 100 µM; in [8] it was 88.8 µM; in test [9], more than 100 µM.
`Oc1cccc(-c2nc3cc(F)ccc3s2)c1`: the TGI in test [1] came to 71.3 µM; in test [2], 30 µM; in test [3], 61 µM; in test [5], 70.7 µM; in [6], 43.4 µM; in [7] it was 50.3 µM. Besides, the values for the TGI in test [8] and in test [9] were 82.7 µM and 14.2 µM, respectively.
As to `CC(=O)NC1c2ccccc2C(C)(C)C12CCC1(CC2)OCCO1` (stereo not drawn), the TGI in test [1], in [2], in test [3], in [4], in test [5] and in [7] was more than 100 µM in each case. Moreover, the TGI in test [8] is more than 10 µM; in test [9] it was more than 100 µM.
Consider `O=C1C(=Cc2ccccc2O)N=C(c2ccccc2)N1n1c(-c2ccccc2)nc2ccccc2c1=O`, for which the TGI in [1] is 89.3 µM; in test [2], more than 100 µM; in test [3], 31.9 µM; in [4], 96.8 µM; in test [5], 89.5 µM; in test [7], more than 100 µM. Moreover, the TGI in test [8] was more than 100 µM; in test [9], 93 µM.
